Publication PMC4784473 (Bioorganic & medicinal chemistry letters, 2008)

Assays:
M. tuberculosis DXS = M. tuberculosis DXS (Mycobacterium tuberculosis, UniProt P9WNS3); assay: biochemical; assay type: biochemical; settings: for inhibitory activity against M. tuberculosis DXS (in words): SAR discussion
Vero cells = assay: Vero cell cytotoxicity; assay type: cell-based; settings: Vero cell toxicity versus M. tuberculosis growth inhibition

M. tuberculosis DXS, sequence (P9WNS3 whole entry): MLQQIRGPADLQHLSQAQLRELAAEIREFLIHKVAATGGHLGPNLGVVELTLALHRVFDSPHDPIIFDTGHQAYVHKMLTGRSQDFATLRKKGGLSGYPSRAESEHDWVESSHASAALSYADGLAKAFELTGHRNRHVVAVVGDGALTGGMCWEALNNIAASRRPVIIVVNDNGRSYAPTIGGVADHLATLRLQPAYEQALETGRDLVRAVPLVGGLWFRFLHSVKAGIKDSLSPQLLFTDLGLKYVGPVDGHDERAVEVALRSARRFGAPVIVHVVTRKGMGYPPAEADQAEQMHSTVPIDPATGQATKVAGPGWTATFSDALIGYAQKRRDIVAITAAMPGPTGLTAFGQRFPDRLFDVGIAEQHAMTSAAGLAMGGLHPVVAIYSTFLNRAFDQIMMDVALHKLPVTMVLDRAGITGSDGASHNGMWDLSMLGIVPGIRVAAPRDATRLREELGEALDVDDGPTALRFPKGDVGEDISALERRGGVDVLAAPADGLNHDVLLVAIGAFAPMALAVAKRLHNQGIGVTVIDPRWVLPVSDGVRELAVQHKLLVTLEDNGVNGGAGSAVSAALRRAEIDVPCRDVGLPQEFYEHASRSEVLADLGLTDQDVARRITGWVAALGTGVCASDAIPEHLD

Row | SMILES | inhibitory activity against M. tuberculosis DXS (in words) (M. tuberculosis DXS) | other results
1 | COCc1cc(=O)n2ncc(-c3ccc(Cl)cc3)c2[nH]1 [Compound 2] | inhibitory activity was abolished | 
2 | Cc1cc(=O)n2ncc(-c3ccc(Cl)cc3)c2[nH]1 [Compound 3] | inhibitory activity was abolished | 
3 | CCOC(=O)Cc1c(C)nc2c(-c3ccccc3)cnn2c1O [Compound 4] | lost its activity | 
4 | COc1ccc(-c2cc(=O)n3nc(C)c(-c4ccc(Cl)cc4)c3[nH]2)cc1 [Compound 18] |  | selectivity index (Vero cells): 2.1
5 | COc1ccc(-c2cc(=O)n3nc(C)c(-c4ccc(F)cc4)c3[nH]2)cc1 [Compound 19, 2-methyl-3-(4-fluorophenyl)-5-(4-meth-oxy-phenyl)-4H-pyrazolo[1,5-a]pyrimidin-7-one] |  | selectivity index (Vero cells): 4.6
6 | COCc1cc(=O)n2nc(C)c(-c3ccc(Cl)cc3)c2[nH]1 [Compound 25] | loss in activity | 
7 | CCCc1c(-c2ccccc2)[nH]c2c(-c3ccccc3)c(C)nn2c1=O [Compound 27] |  | IC50 (M. tuberculosis DXS): 71.9 ± 10.1 µM
